According to paper PMC12951562, “SH2scan: Mapping SH2 Domain-Ligand Binding Selectivity for Inhibitors and Degraders” (Journal of Medicinal Chemistry, 2026):
Several values for one entry are separate records, joined by “and”; a condition that tells them apart may be missing. Equal entries are not always repeated. Where two headings read alike, the source gives them in different places. Non-standard residues stand in square brackets, D forms with d. Residues, ends and D or L forms follow the SMILES beside them. *: point of attachment. pY = N[C@@H](Cc1ccc(OP(=O)(O)O)cc1)C(=O)O; Caffeoyl = O=C(/C=C/c1ccc(O)c(O)c1)*

Experiments:
Assay in all cases: biochemical
Assay type in all cases: binding
[1] = biological target: T1, APS (SH2B2) (Homo sapiens, UniProt O14492); conditions: for remaining activity at 10 µM / percent of DMSO vehicle control at 10 µM: read-out: percent of DMSO vehicle control
T1 construct: the DNA-tagged SH2 domain concentrations used in this study were <0.1 nM; made in house; host or cells: HEK293 (transient transfection; unpurified extract)
T1 sequence (O14492 417-515 limits assumed): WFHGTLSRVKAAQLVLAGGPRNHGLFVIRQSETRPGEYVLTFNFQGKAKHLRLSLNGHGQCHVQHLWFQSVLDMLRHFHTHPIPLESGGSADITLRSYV

[2] = biological target: T2, PTPN6(SH2dom.C-term.) (Homo sapiens, UniProt P29350); conditions: for remaining activity at 10 µM: read-out: percent of DMSO vehicle control
T2 construct: SH2dom.C-term. denotes SH2 domain closest to C-terminus of protein; made in house; host or cells: HEK293 (transient transfection, unpurified extract)
T2 sequence (P29350 110-213 limits assumed): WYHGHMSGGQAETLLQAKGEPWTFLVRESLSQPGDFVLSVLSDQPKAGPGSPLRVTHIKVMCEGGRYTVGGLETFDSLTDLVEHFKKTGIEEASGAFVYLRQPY

[3] = biological target: T3, SLAP2 (Homo sapiens, UniProt Q9H6Q3); conditions: for remaining activity at 10 µM: read-out: percent of DMSO vehicle control
T3 construct: made in house; host or cells: HEK293 (transient transfection), unpurified extract
T3 sequence (Q9H6Q3 1-261): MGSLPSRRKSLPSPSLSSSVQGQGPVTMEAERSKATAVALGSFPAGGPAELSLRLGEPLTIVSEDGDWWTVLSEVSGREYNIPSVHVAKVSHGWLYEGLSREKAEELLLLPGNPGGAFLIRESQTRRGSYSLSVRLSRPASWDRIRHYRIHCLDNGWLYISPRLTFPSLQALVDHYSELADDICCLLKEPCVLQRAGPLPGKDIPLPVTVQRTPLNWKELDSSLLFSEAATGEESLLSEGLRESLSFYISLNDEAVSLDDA

[4] = biological target: T4, TNS3 (Homo sapiens, UniProt Q68CZ2); conditions: for remaining activity at 10 µM: read-out: percent of DMSO vehicle control
T4 construct: made in house; host or cells: HEK293 (transient transfection), unpurified extract
T4 sequence (Q68CZ2 1-1445): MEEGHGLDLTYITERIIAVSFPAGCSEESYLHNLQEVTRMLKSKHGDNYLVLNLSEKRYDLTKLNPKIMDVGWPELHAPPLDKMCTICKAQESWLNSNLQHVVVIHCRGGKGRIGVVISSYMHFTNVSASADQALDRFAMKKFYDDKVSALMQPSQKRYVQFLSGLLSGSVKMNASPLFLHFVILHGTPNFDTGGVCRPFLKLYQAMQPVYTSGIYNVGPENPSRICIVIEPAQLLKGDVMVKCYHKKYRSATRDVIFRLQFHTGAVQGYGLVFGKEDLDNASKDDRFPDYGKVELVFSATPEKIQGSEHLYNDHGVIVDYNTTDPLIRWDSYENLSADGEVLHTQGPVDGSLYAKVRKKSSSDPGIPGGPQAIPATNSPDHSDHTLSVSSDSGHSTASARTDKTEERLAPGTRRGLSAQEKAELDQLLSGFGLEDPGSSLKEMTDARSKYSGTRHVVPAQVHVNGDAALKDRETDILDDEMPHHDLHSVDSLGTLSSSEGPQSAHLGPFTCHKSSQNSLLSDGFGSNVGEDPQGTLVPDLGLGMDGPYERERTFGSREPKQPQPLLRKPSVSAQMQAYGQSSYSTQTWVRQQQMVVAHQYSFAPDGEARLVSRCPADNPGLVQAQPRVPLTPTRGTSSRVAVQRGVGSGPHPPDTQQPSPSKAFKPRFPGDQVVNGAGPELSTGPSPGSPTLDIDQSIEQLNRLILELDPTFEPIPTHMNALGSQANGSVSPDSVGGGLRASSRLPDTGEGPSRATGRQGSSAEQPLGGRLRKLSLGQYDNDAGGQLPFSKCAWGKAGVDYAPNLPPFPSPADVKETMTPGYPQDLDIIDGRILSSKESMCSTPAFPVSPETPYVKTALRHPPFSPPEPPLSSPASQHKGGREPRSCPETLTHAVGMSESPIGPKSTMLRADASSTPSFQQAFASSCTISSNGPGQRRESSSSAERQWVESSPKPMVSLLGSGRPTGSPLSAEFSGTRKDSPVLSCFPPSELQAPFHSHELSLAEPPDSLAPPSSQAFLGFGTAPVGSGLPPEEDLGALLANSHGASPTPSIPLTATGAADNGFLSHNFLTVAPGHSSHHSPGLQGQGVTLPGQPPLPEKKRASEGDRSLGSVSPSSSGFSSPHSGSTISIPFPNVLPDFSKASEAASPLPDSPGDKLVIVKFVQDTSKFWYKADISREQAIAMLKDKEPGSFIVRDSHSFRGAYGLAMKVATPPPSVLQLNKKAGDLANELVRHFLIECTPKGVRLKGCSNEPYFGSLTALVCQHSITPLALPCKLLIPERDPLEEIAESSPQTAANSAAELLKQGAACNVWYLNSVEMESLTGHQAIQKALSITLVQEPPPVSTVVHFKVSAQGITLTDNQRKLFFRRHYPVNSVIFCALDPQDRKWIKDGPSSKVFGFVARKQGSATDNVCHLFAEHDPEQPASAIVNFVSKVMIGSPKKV

[5] = biological target: T5, VAV2 (Homo sapiens, UniProt P52735); conditions: for remaining activity at 10 µM: read-out: percent of DMSO vehicle control
T5 construct: made in house; host or cells: HEK293 (transient transfection), unpurified extract
T5 sequence (P52735 1-878): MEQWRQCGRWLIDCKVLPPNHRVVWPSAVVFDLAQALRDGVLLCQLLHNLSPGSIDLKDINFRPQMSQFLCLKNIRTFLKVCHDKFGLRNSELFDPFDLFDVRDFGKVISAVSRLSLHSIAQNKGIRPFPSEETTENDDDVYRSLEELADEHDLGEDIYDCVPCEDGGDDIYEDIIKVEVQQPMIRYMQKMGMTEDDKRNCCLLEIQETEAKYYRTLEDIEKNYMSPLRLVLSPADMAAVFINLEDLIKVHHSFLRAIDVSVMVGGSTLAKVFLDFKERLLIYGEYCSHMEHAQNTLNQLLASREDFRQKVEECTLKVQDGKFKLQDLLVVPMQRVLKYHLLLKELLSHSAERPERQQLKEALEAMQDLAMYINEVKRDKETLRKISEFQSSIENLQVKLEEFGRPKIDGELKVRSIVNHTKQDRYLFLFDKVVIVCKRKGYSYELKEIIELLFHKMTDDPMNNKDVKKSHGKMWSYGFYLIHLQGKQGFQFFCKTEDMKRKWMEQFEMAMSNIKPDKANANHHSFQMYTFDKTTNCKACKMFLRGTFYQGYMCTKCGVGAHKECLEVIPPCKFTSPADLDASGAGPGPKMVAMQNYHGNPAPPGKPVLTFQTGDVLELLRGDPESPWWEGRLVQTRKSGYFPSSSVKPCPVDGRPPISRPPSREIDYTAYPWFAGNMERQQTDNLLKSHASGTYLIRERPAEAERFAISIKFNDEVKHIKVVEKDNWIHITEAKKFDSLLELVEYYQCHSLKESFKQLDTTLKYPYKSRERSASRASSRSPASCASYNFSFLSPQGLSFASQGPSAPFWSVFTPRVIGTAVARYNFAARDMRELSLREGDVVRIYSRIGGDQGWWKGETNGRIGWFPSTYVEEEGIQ

| SMILES | remaining activity at 10 µM ([1]; primary screen, 10 μM) [%] | remaining activity at 10 µM ([2]; primary screen, 10 μM) [%] | remaining activity at 10 µM ([3]; primary screen, 10 μM) [%] | remaining activity at 10 µM ([4]; primary screen, 10 μM) [%] | remaining activity at 10 µM ([5]; primary screen, 10 μM) [%] | percent of DMSO vehicle control at 10 µM [1] [%] | remaining activity at 10 µM [2] [%] | remaining activity at 10 µM [3] [%] | remaining activity at 10 µM [4] [%] | remaining activity at 10 µM [5] [%] | Kd [4] [nM] | also measured |
| --- | --- | --- | --- | --- | --- | --- | --- | --- | --- | --- | --- | --- |
| O=C(CCl)Nc1cccc(CNC(=O)[C@H](Cc2ccc(OP(=O)(O)O)cc2)NC(=O)Cc2ccc(F)cc2)c1 [MN551] | 94.2 ± 3.2 | 147 | 81.6 ± 2.1 | 48.5 ± 7.3 | 77.8 ± 4.8 | – | – | – | – | – | – | – |
| CC[C@H](C)[C@H](NC(=O)[C@H](CCC(=O)O)NC(=O)[C@H](CCC(=O)O)NC(=O)[C@H](Cc1ccc(OP(=O)(O)O)cc1)NC(C)=O)C(=O)N[C@@H](CCC(=O)O)C(N)=O [Ac-pYEEIE-NH2] (Ac-[pY]EEIE-NH2) | – | – | – | – | – | – | – | – | – | – | – | percent of DMSO vehicle control ([1]; primary screen, 10 μM): 121.8%; percent of DMSO vehicle control ([2]; primary screen, 10 μM): 110.0%; percent of DMSO vehicle control ([3]; primary screen, 10 μM): 202.8%; percent of DMSO vehicle control ([4]; primary screen, 10 μM): 83.2±4.0%; percent of DMSO vehicle control ([5]; primary screen, 10 μM): 49.5±2.8% |
| CC(=O)N1CC[C@H]2CC[C@@H](C(=O)N[C@@H](CCC(N)=O)C(=O)NC(c3ccccc3)c3ccccc3)N2C(=O)[C@@H](NC(=O)c2cc3cc(C(F)(F)P(=O)(O)O)ccc3[nH]2)C1 [SI-109] | – | – | – | – | – | 130 | 119 | 121 | 128 | 119 | – | – |
| CC(=O)N[C@@H](Cc1ccc(CP(=O)(O)O)cc1)C(=O)NC1(C(=O)N[C@@H](CC(N)=O)C(=O)NCCCc2c(O)ccc3ccccc23)CCCCC1 [CGP78850] | – | – | – | – | – | 128 ± 7.6 | 130.9 ± 0.8 | 91.4 ± 15.3 | 9.8 ± 0.1 | 50.4 ± 7.8 | 620 | – |
| CC[C@H](C)[C@H](NC(=O)[C@H](CCC(=O)O)NC(=O)[C@H](CCC(=O)O)NC(=O)[C@H](Cc1ccc(OP(=O)(O)O)cc1)NC(=O)/C=C/c1ccc(O)c(O)c1)C(=O)N[C@@H](CCC(=O)O)C(=O)O [Caffeic acid-pYEEIE] (Caffeoyl-[pY]EEIE-OH) | – | – | – | – | – | 2.2 ± 0.3 | 114 ± 11 | 5.3 ± 3.8 | 1.8 ± 0.6 | 0.5 ± 0.1 | 1000 ± 210 | Kd [1]: 2300 ± 450 nM; Kd ([3]; KD, dose-response): 310 nM and 314 nM; Kd [5]: 58 ± 40 nM |
| NC(=O)CC[C@H](NC(=O)[C@@H]1CC[C@@H]2CCN(C(=O)CCCCCC#Cc3cccc4c3CN(C3CCC(=O)NC3=O)C4=O)C[C@H](NC(=O)c3cc4cc(C(F)(F)P(=O)(O)O)ccc4[nH]3)C(=O)N21)C(=O)NC(c1ccccc1)c1ccccc1 (stereo partly drawn) [SD-36] | – | – | – | – | – | 140 ± 6.1 | 108 ± 6.9 | 95.7 ± 9.9 | 57.6 ± 6 | 117 ± 1.5 | – | – |
| CC[C@H](C)[C@H](NC(=O)[C@H](CO)NC(=O)[C@H](CC(C)C)NC(=O)[C@H](CCCNC(=N)N)NC(=O)[C@H](CO)NC(=O)[C@H](CS)NC(C)=O)C(=O)N[C@@H](Cc1ccc(OP(=O)(O)O)cc1)C(=O)N[C@@H](CC(=O)O)C(=O)N[C@@H](CC(N)=O)C(=O)N[C@H](C(=O)N1CCC[C@H]1C(=O)NCC(N)=O)C(C)C [Ac-CSRLSIpYDNVPG-NH2] (Ac-CSRLSI[pY]DNVPG-NH2) | – | – | – | – | – | – | – | – | – | – | 120 ± 28.9 | – |
| CC(C)(C)[C@H](NC(=O)/C=C/c1ccc(OP(=O)(O)O)cc1)C(=O)N1CCC[C@H]1C(=O)N(c1ccccc1)c1ccc(I)cc1 [STAT6-IN-3] | 66.4 ± 17.9 | 136 ± 30.6 | 92.1 ± 16.6 | 55.6 ± 12.1 | 87.5 ± 11.3 | – | – | – | – | – | – | – |
| C/C(=C\C(=O)N[C@H](C(=O)N1CCC[C@H]1C(=O)N(c1ccccc1)c1ccc(I)cc1)C(C)(C)C)c1ccc(OP(=O)(O)O)cc1 [STAT6-IN-1] | 45.3 ± 5.2 | 45.8 ± 7.8 | 55.8 ± 2.8 | 57 ± 10.1 | 79.9 ± 1.6 | – | – | – | – | – | – | – |
| O=C(COc1ccc2cc(C(=O)Nc3ccccc3)ccc2c1)NCc1ccc(OP(=O)(O)O)c(OP(=O)(O)O)c1 [Stafib-1] | 64.6 ± 31.3 | 179 | 90.4 ± 6.1 | 77.8 ± 9 | 95.8 ± 29.1 | – | – | – | – | – | – | – |
